Data reported in patent US12508323B2, “Method of treatment of colorectal, breast and lung cancer with metal containing immune agonist complexes” (HANGZHOU XINGAO BIOTECHNOLOGY CO., LTD., priority 2020, dated 2025).

How the values were obtained:
[1] = system: dendritic cell DCs and T cells; assay: Activation of immune cells (flow cytometry of spleen and lung cells); assay type: in vivo, mice; conditions: 14 days after immunization, mouse spleen and lung tissues
Description: Mice were raised, immunized with virus infection, and subjected to blood collection, as the same as Example 3. Isotype control nanobody was purchased from eBiosciences; antibody magnetic beads were purchased from Militeny Biotech; and flow cytometer was purchased from BD company. 14 days after immunization, mouse spleen and lung tissues were taken, ground and pounded separately, filtered with a 40-μm filter, and centrifuged at 1000 rpm for 10 min to separate unlysed immune cells. The DC cells (CD40\CD80\CD86\MHCII), T cells and (CD8+) cells were separated by the antibody magnetic beads, and added with the corresponding FAC nanobody (diluted with FACS buffer). As a negative control, the isotype control nanobody was added into the DC cells followed by incubation for 1 h, centrifugation, and rinsing with PBS. After that, the samples were analyzed by the flow cytometry to select the appropriate cells for determination of fluorescence intensity (MFI), and the results were shown in Table 8.

OVA = assay: Immune adjuvant function with OVA immunization (ELISA); assay type: in vivo; conditions: values of log2; s.c. 10 μg OVA + 100 μg adjuvant on days 1, 7, 14; sampled day 21; C57BL/6 mice
Description: Specific pathogen free (SPF)-grade C57BL/6 male mice, aged 7-8 weeks and weighing 20-22 g, were purchased from American Animals Inc. The aluminum adjuvant and OVA were purchased from Invitrogen company.
The mice were divided into 7 groups (10 mice in each group), namely, group A: OVA+cGAMP; group B: OVA+MncGAMP; group C: OVA+complex VIII; group D: OVA+complex IV; group E: OVA+complex VII; group F: OVA+aluminum adjuvant; and group G: OVA.
Each mouse was injected subcutaneously with 10 μg of OVA and 100 μg of aluminum adjuvant or a different species of cGAMP (or the immune agonist complex), and those not injected were negative control groups. Immunization was performed once on days 1, 7, and 14, respectively, and lung lavage fluid was obtained and blood samples taken on day 21. The potency of the immune agonist and the complex as adjuvants to induce nanobody production was determined by ELISA, and the results were shown in Table 7.

[2] = system: lung cancer Lewis tumor line LL/2; assay: Subcutaneous transplantation tumor model, LL/2 in C57BL/6 mice; assay type: in vivo; conditions: i.p. 10 mg/kg (nanobody 200 μg/mouse) once a day for 21 days
Description: Specific pathogen free (SPF)-grade BALB/C and C57BL/6 male mice, aged 7-8 weeks and weighing 20-22 g, were purchased from Shanghai Slac Laboratory Animal Co., Ltd (Laboratory animal quality certificate number: SCXK (Shanghai)2007-0005.
Mice were injected intraperitoneally with the immune agonist or complex with a dose of 10 mg/kg, or each injected intraperitoneally with 200 μg of the nanobody.
Administration route: intraperitoneal injection.
Frequency: once a day for consecutive 21 days.
Cancer cells were cultured, passaged, collected at the logarithmic phase of cells, and prepared into a cell suspension at a concentration of (1.0×10^7) per ml. Mice were injected with 0.2 ml of the cell suspension at the axilla of the right forelimb (cell number 2.0×10^6 cells/each), and were tumorigenic in about 8 days. These mice were randomly divided into 10 groups equally, namely, group A: negative control group (saline group), group B: positive control (cGAMP) group (dose: 10 mg/kg), group C: MncGAMP group (dose: 10 mg/kg), group D: anti-PD-L1 nanobody group, group E: anti-CD47 nanobody group, group F: anti-TfR1 nanobody group, group G: complex V group (dose: 10 mg/kg), group H: complex VI group (dose: 10 mg/kg), group I: complex IX group (dose: 10 mg/kg), and group J: complex VIII group (10 mg/kg). […]
The data were expressed as ×±s and processed by SPSS10.0 software. […]

[3] = system: coronavirus (ATCC VR-841); assay: Inhibition of coronavirus replication in PBMCs (fluorescence quantitative RT-PCR); assay type: cell-based; conditions: PBMC, 504 h, 100 μg/mL drug, 10 μL virus, after three weeks, six samples per group, read-out: Average inhibition rate of coronavirus (%)
Source text: Peripheral blood mononuclear cells (PBMCs) used herein was purchased from Shanghai Saili biotechnology Co., Ltd, which mainly included lymphocytes (T cells/B cells), monocytes, macrophages, and dendritic cells. Most of PBMCs were lymphocytes. PBMCs were normal primary cells, which belonged to a mixed system.
The virus strain used herein was coronavirus (ATCC VR-841), which was suitable for laboratory use and purchased from ATCC company. It was a bronchopneumonia coronavirus. Virus experiments in this study were performed by virus laboratory of American Animals Inc.
The cultured PBMCs were divided into seven groups (six samples in each group), namely, group A: negative control group (PBMC); group B, PBMC+cGAMP; group C, PBMC+MncGAMP; group D, PBMC+complex VIII; group E, PBMC+complex I; group F, PBMC+complex II; and group G, PBMC+complex III. Except for group A, which was used as a control group without drug addition, all other groups were respectively added with 100 μg/mL of the corresponding drug. Each cell sample was added with 10 μL of virus, and the antiviral status of the different immune agonist complexes were determined after three weeks. The inhibition rate of virus was selected as an evaluation index. The activity titer of the virus was detected by fluorescence quantitative RT-PCR.

Nc1nc(=O)c2ncn(C3OC4COP(=O)(O)OC5C(COP(=O)(O)OC3C4O)OC(n3cnc4c(N)ncnc43)C5O)c2[nH]1 (centres unmarked) [cGAMP, 2′3′-cGAMP]
CD8 cells (%) [1]: 2.3 ± 0.2%
CD40 cells (%) [1]: 122.6%
CD80 cells (%) [1]: 115.5%
CD86 cells (%) [1]: 18.3%
MHCII cells (%) [1]: 218.4%
T cells (%) [1]: 0.3 ± 0.2%
Alveolar lavage fluid (IgA) (OVA): 2.3 ± 0.2
Serum (IgG) (OVA): 17.5 ± 0.9
Average tumor weight ([2]; n = 10, mean ± SD): 1.138 ± 0.127 g
Average tumor inhibition rate (%) ([2]; vs negative control tumor weight): 60.0%
inhibition at 100 µg/mL [3]: 25 ± 4%
